Measurements: patent publication US20220202912A1, “Polypeptides in Preparation of Drugs for Treatment or Prevention of Rheumatoid Arthritis” (priority 2011, published 2022)
Marks after values point to notes of the source that are not given here. Where no end group is shown, it is not given here.

Experiments:
IL-1β = IL-1β production by mouse peritoneal macrophages (LPS, ELISA); format: cell-based, C57BL/6 mice; details: 50 μmoL/L, LPS 5 μg/mL, 48 h
Description: In the test, mice are divided into […], namely a blank control group, a lipopolysaccharide (LPS) model group, a dexamethasone group, and mPEG-SC20k-HM-3 groups at different doses (0.56, 1.12, 2.25, 4.50, 9.00 μmol/L).
(1) IL-1 production: mice are intraperitoneally injected with 1 mL of broth medium (containing 6% of starch). After three days, mouse peritoneal macrophages are taken aseptically and washed twice with RPMI 1640 medium, and the cell concentration is adjusted to 2×10^6 cells/mL. The cells are injected into a 24-well culture plate, 1 mL per well, and the cells are incubated in a cell incubator for 3 h, and vibrated once every 30 min to make the cells fully adhere. Then the cells are washed twice with culture solution to remove non-adherent cells, are cultured continuously for 48 h after administration, and are centrifuged at 1000 r for 15 min. The supernatant is collected as a sample with IL-1β to be tested. (2) Determination of IL-1 content: various solutions are prepared; tested samples and standard substances with different concentrations (100 μL/well) are added into the corresponding wells, reaction wells are sealed with plate-sealing adhesive tape, and incubation is performed at 37° C. for 90 min; the plate is washed four times; biotinylated antibody working solution (100 μL/well) is added, the reaction wells are sealed with plate-sealing adhesive tape, and incubation is performed at 37° C. for 60 min; the plate is washed four times; enzyme conjugate working solution (100 μL/well) is added, the reaction wells are sealed with plate-sealing adhesive tape, and incubation is performed at 37° C. for 30 min; the plate is washed four times; chromogenic reagent (100 μL/well) is added, and incubation is performed at 37° C. for 10-20 min in the absence of light; stop solution (100 μL/well) is added, and the OD 450 nm absorbance is measured immediately after uniform mixing (within 5 min).

cotton ball granuloma = format: in vivo, SD rats; details: day 8; 5 mg/kg sc once a day (Dexamethasone, G2)
Description: The rats are randomly divided into a model control group, a positive control (dexamethasone) group, and mPEG-SC20k-HM-3 groups using subcutaneous injection at a high dose, a medium dose and a low dose, a total of 5 groups, and the drugs are administered to each group of animals by subcutaneous injection, for 7 days in succession.
Rats in each group are anesthetized with pentobarbital sodium (40 mg/kg) by intraperitoneal injection, and the abdominal coat is cut off. The skin in the middle of the lower abdomen is cut open under aseptic condition, and the incision is about 1 cm long. The subcutaneous tissue is expanded by vascular forceps, and 30 mg of sterile dry cotton balls (weighed accurately by an electronic balance before the test, and undergoing conventional autoclaving and drying for later use) are implanted hypodermically into the groin on one side. The incision is sutured, and an appropriate amount of amoxicillin is sprinkled on the incision to prevent infection.
The drug is administered on the same day after surgery, and is administered for 7 days in succession. On day 8, the rats are killed by cervical dislocation, the cotton balls are removed surgically, the fat tissue is removed, and the […] at 60° C. The mass of granuloma is expressed in mg (granulomatoma)/100 g (body weight). The granuloma mass difference between each administration group and the model control group is compared, and the inhibition rate is calculated. Data statistical analysis is performed on significant differences between the groups.
Inhibition rate (%)=(average granuloma mass of model control group−average granuloma mass of administration group)/average granuloma mass of model control group×100%.

[1] = test system: tumor in BALB/c nude mice; experiment: in vivo pharmacodynamics (antitumor) of PEG-modified HM-3 in BALB/c nude mice; details: BALB/c nude mice
Description: Four different types of mPEG-ALD and mPEG-SC with different molecular weights are selected to modify the polypeptide […](named HM-3), i.e., mPEG-ALD5k, mPEG-ALD10k, mPEG-SC10k, mPEG-SC20k, and modification reaction conditions are explored and optimized.

CIA mouse models = experiment: collagen-induced arthritis (CIA) mouse models; format: in vivo, DBA/1 mice; details: for therapeutic effect on collagen-induced arthritis in mice (conclusion): mouse, in vivo
AIA rat models = experiment: adjuvant-induced arthritis (AIA) rat models; format: in vivo, SD rats; details: for therapeutic effect on adjuvant-induced arthritis in rats (conclusion): rat, in vivo
[2] = Table 1, methotrexate 1 mg/kg, once every 5 days, three times
[3] = Tables 3 and 5, methotrexate 1 mg/kg
[4] = Table 2, methotrexate 1 mg/kg, once every 5 days, three times
[5] = Tables 4 and 6, methotrexate 1 mg/kg
[6] = high dose 0.8 mg/kg twice a day, 10 days
[7] = low dose 0.2 mg/kg twice a day, 10 days
[8] = medium dose 0.4 mg/kg twice a day, 10 days
[9] = high dose 0.4 mg/kg twice a day, 10 days
[10] = low dose 0.1 mg/kg twice a day, 10 days
[11] = medium dose 0.2 mg/kg twice a day, 10 days
[12] = high dose 3.2 mg/kg twice a day, 10 days
[13] = low dose 0.8 mg/kg twice a day, 10 days (polypeptide II)
[14] = medium dose 1.6 mg/kg twice a day, 10 days
[15] = high dose 1.6 mg/kg three times a day, 10 days
[16] = low dose 0.4 mg/kg three times a day, 10 days
[17] = medium dose 0.8 mg/kg three times a day, 10 days

Compound: C[C@@H]1C[C@H]2[C@@H]3CCC4=CC(=O)C=C[C@]4(C)[C@@]3(F)[C@@H](O)C[C@]2(C)[C@@]1(O)C(=O)CO [Dexamethasone, reference compound]
- IL-1β content (IL-1β): 208.19 ± 13.78 pg/mL
- inhibition at 50 µM (IL-1β; Mus musculus, Peritoneal macrophage, read-out: Inhibition rate): 79%
- Inhibition rate of cotton ball granuloma (cotton ball granuloma): 61.59** %
- cotton ball granuloma (cotton ball granuloma): 0.11 ± 0.04 mg(cotton ball granuloma)/100 g(weight)

Compound: CC(=O)O[C@H]1C(=O)[C@@]2(C)[C@H]([C@H](OC(=O)c3ccccc3)[C@]3(O)C[C@H](OC(=O)[C@H](O)[C@@H](NC(=O)c4ccccc4)c4ccccc4)C(C)=C1C3(C)C)[C@]1(OC(C)=O)CO[C@@H]1C[C@@H]2O [paclitaxel, reference compound]
- antitumor effect in vivo [1]: 44.50%

Compound: CN(Cc1cnc2nc(N)nc(N)c2n1)c1ccc(C(=O)N[C@@H](CCC(=O)O)C(=O)O)cc1 [positive control, methotrexate, reference compound]
- clinical scoring (CIA mouse models; [2]): 8.1 ± 1.2
- swelling of joints (CIA mouse models; [2]): 0.76 ± 0.17 mm
- swelling of paws (CIA mouse models; [2]): 0.95 ± 0.19 mm
- clinical scoring (CIA mouse models; [3]): 2.33 ± 2.73
- swelling of joints (CIA mouse models; [3]): −0.19 mm
- swelling of paws (CIA mouse models; [3]): 0.21 ± 0.45 mm
- clinical scoring (AIA rat models; [4]): 5.0 ± 1.0
- swelling of left paw (AIA rat models; [4]): 3.60 ± 0.72 mm
- swelling of right paw (AIA rat models; [4]): 0.68 ± 0.19 mm
- clinical scoring (AIA rat models; [5]): 4.00 ± 0.00
- swelling of left paw (AIA rat models; [5]): 3.23 ± 1.20 mm
- swelling of right paw (AIA rat models; [5]): 0.13 ± 0.33 mm

Compound: ACDCRGDCFCGGGGIVRRADRAAVP (cysteine pairing not given here) [polypeptide I, No. 1]
- clinical scoring (CIA mouse models; [6]): 10.4 ± 1.6
- swelling of joints (CIA mouse models; [6]): 1.05 ± 0.31 mm
- swelling of paws (CIA mouse models; [6]): 1.29 ± 0.26 mm
- clinical scoring (CIA mouse models; [7]): 9.7 ± 1.5
- swelling of joints (CIA mouse models; [7]): 0.93 ± 0.23 mm
- swelling of paws (CIA mouse models; [7]): 1.10 ± 0.22 mm
- clinical scoring (CIA mouse models; [8]): 9.1 ± 1.4
- swelling of joints (CIA mouse models; [8]): 0.76 ± 0.17 mm
- swelling of paws (CIA mouse models; [8]): 0.92 ± 0.18 mm
- therapeutic effect on collagen-induced arthritis in mice (conclusion) (CIA mouse models): CONCLUSION: polypeptide I has therapeutic effect on collagen-induced arthritis in mice
- clinical scoring (AIA rat models; [9]): 6.0 ± 1.2
- swelling of left paw (AIA rat models; [9]): 4.77 ± 0.95 mm
- swelling of right paw (AIA rat models; [9]): 1.25 ± 0.30 mm
- clinical scoring (AIA rat models; [10]): 5.7 ± 1.1
- swelling of left paw (AIA rat models; [10]): 4.27 ± 0.85 mm
- swelling of right paw (AIA rat models; [10]): 1.18 ± 0.31 mm
- clinical scoring (AIA rat models; [11]): 5.3 ± 1.0
- swelling of left paw (AIA rat models; [11]): 3.81 ± 0.76 mm
- swelling of right paw (AIA rat models; [11]): 0.79 ± 0.18 mm
- therapeutic effect on adjuvant-induced arthritis in rats (conclusion) (AIA rat models): CONCLUSION: polypeptide I has therapeutic effect on adjuvant-induced arthritis in rats

Compound: IVRRADRAAVPGGGGRGD [polypeptide II, No. 2]
- clinical scoring (CIA mouse models; [12]): 2.67 ± 2.34
- swelling of joints (CIA mouse models; [12]): −0.18 mm
- swelling of paws (CIA mouse models; [12]): 0.23 ± 0.35 mm
- clinical scoring (CIA mouse models; [13]): 2.33 ± 3.14
- swelling of joints (CIA mouse models; [13]): −0.19 mm
- swelling of paws (CIA mouse models; [13]): 0.13 ± 0.28 mm
- clinical scoring (CIA mouse models; [14]): 5.83 ± 2.93
- swelling of joints (CIA mouse models; [14]): 0.35 mm
- swelling of paws (CIA mouse models; [14]): 0.45 ± 0.41 mm
- therapeutic effect on collagen-induced arthritis in mice (conclusion) (CIA mouse models): CONCLUSION: polypeptide II has therapeutic effect on collagen-induced arthritis in mice
- clinical scoring (AIA rat models; [15]): 7.29 ± 3.40
- swelling of left paw (AIA rat models; [15]): 4.98 ± 1.97 mm
- swelling of right paw (AIA rat models; [15]): 1.97 ± 1.56 mm
- clinical scoring (AIA rat models; [16]): 8.29 ± 4.86
- swelling of left paw (AIA rat models; [16]): 5.03 ± 1.99 mm
- swelling of right paw (AIA rat models; [16]): 1.56 ± 1.66 mm
- clinical scoring (AIA rat models; [17]): 6.57 ± 4.24
- swelling of left paw (AIA rat models; [17]): 4.50 ± 1.95 mm
- swelling of right paw (AIA rat models; [17]): 1.63 ± 1.57 mm
- therapeutic effect on adjuvant-induced arthritis in rats (conclusion) (AIA rat models): CONCLUSION: polypeptide II has therapeutic effect on adjuvant-induced arthritis, and its effect is higher than that of polypeptide I.
- antitumor effect in vivo [1]: 43.92%
